Measured values as given in patent publication US8470812B2, “Substituted benzo-pyrimido-tetrazolo-diazepine compounds” (ArQule, Inc., priority 2009, dated 2013).

Legend:
DLD-1 cancer cells = test: MTS assay, cell growth inhibition; assay type: cell-based; conditions: DLD-1 cells, 72 h incubation; test concentration not given
Method: (§1) Cells were maintained at 37° C., 5% CO2 in DMEM media supplemented with 1% fetal bovine serum, penicillin/streptomycin and fungizone (Invitrogen). Cells were seeded into 96-well tissue culture plates at 3000 per well and cultured at 37° C. for 18 hours. Test compounds were dissolved and diluted to 300× in DMSO then diluted 1:40 in DMEM. Cells were incubated with test compounds for 72 hours followed by incubation with tetrazolium compound (3-(4,5-dimethylthiazol-2-yl)-5-(3-carboxymethoxyphenyl)-2-(4-sulfophenyl)-2H-tetrazolium, inner salt; MTS) and the electron coupling reagent, phenazine methosulfate (PMS) for 4 hours. […] The ability of compounds to inhibit cell growth in this assay is correlated with the reduction of dehydrogenase enzyme activity found in metabolically active cells. The measurement of the absorbance of the formazan was assessed using a Victor (Perkin Elmer) microplate reader at 492 nm. The calculated IC50 value is the concentration of the test compound that causes a 50% decrease in the absorbance. Selected compounds have been tested in DLD-1 and MDA-MB-231 cancer cells.

MDA-MB-231 cancer cells = test: MTS assay, cell growth inhibition; assay type: cell-based; conditions: MDA-MB-231 cells, 72 h incubation; test concentration not given
Method: as §1

| SMILES | DLD-1, MTS, 72 h (% Inhibition) (DLD-1 cancer cells) [%] | MDA-MB-231, MTS, 72 h (% Inhibition) (MDA-MB-231 cancer cells) [%] |
| --- | --- | --- |
| COc1ccccc1CCNc1ncc2c(n1)Nc1ccccc1-n1nnnc1-2 [Compound 69, N-[2-(2-methoxyphenyl)ethyl]-9H-pyrimido[5,4-c]tetrazolo[1,5-a][1,5]benzodiazepin-11-amine] | 58 |  |
| Clc1ccccc1CCNc1ncc2c(n1)Nc1ccccc1-n1nnnc1-2 [Compound 89, N-[2-(2-chlorophenyl)ethyl]-9H-pyrimido[5,4-c]tetrazolo[1,5-a][1,5]benzodiazepin-11-amine] | 31 |  |
| c1ccc(CNc2ncc3c(n2)Nc2ccccc2-n2nnnc2-3)nc1 [Compound 25, N-(pyridin-2-ylmethyl)-9H-pyrimido[5,4-c]tetrazolo[1,5-a][1,5]benzodiazepin-11-amine] | 97 | 79 |
| CC1CCCN1c1ncc2c(n1)Nc1ccccc1-n1nnnc1-2 (stereo not drawn) [Compound 68, 11-(2-methylpyrrolidin-1-yl)-9H-pyrimido[5,4-c]tetrazolo[1,5-a][1,5]benzodiazepine] | 97 | 75 |
| COc1cc(CNc2ncc3c(n2)Nc2ccccc2-n2nnnc2-3)cc(OC)c1OC [Compound 72, N-(3,4,5-trimethoxybenzyl)-9H-pyrimido[5,4-c]tetrazolo[1,5-a][1,5]benzodiazepin-11-amine] | 97 | 78 |
| CC(Nc1ncc2c(n1)Nc1ccccc1-n1nnnc1-2)c1ccc(F)cc1 (stereo not drawn) [Compound 33, N-[1-(4-fluorophenyl)ethyl]-9H-pyrimido[5,4-c]tetrazolo[1,5-a][1,5]benzodiazepin-11-amine] | 82 | 42 |
| Clc1ccccc1CNc1ncc2c(n1)Nc1ccccc1-n1nnnc1-2 [Compound 48, N-(2-chlorobenzyl)-9H-pyrimido[5,4-c]tetrazolo[1,5-a][1,5]benzodiazepin-11-amine] | 97 | 51 |
| c1ccc2c(c1)Nc1nc(NC3CCCC3)ncc1-c1nnnn1-2 [Compound 45, N-cyclopentyl-9H-pyrimido[5,4-c]tetrazolo[1,5-a][1,5]benzodiazepin-11-amine] | 95 | 76 |
| CCC(C)CNc1ncc2c(n1)Nc1ccccc1-n1nnnc1-2 (stereo not drawn) [Compound 95, N-(2-methylbutyl)-9H-pyrimido[5,4-c]tetrazolo[1,5-a][1,5]benzodiazepin-11-amine] | 97 | 99 |
| Fc1ccc(CN2c3ccccc3-n3nnnc3-c3cnc(N4CCNCC4)nc32)cc1F [Compound 11, 9-(3,4-difluorobenzyl)-11-piperazin-1-yl-9H-pyrimido[5,4-c]tetrazolo[1,5-a][1,5]benzodiazepine] | 97 | 97 |
| CC(C)CN(C)c1ncc2c(n1)Nc1ccccc1-n1nnnc1-2 [Compound 47, N-methyl-N-(2-methylpropyl)-9H-pyrimido[5,4-c]tetrazolo[1,5-a][1,5]benzodiazepin-11-amine] | 46 |  |
| c1ccc(CCNc2ncc3c(n2)Nc2ccccc2-n2nnnc2-3)cc1 [Compound 35, N-(2-phenylethyl)-9H-pyrimido[5,4-c]tetrazolo[1,5-a][1,5]benzodiazepin-11-amine] |  | 42 |
| COc1ccc(OC)c(CNc2ncc3c(n2)Nc2ccccc2-n2nnnc2-3)c1 [Compound 103, N-(2,5-dimethoxybenzyl)-9H-pyrimido[5,4-c]tetrazolo[1,5-a][1,5]benzodiazepin-11-amine] | 97 | 97 |
| CCCN(C)c1ncc2c(n1)Nc1ccccc1-n1nnnc1-2 [Compound 104, N-methyl-N-propyl-9H-pyrimido[5,4-c]tetrazolo[1,5-a][1,5]benzodiazepin-11-amine] | 97 | 99 |
| Fc1ccc(CNc2ncc3c(n2)Nc2ccccc2-n2nnnc2-3)cc1Cl [Compound 55, N-(3-chloro-4-fluorobenzyl)-9H-pyrimido[5,4-c]tetrazolo[1,5-a][1,5]benzodiazepin-11-amine] | 45 |  |
| Fc1cc(F)cc(CNc2ncc3c(n2)Nc2ccccc2-n2nnnc2-3)c1 [Compound 76, N-(3,5-difluorobenzyl)-9H-pyrimido[5,4-c]tetrazolo[1,5-a][1,5]benzodiazepin-11-amine] | 73 |  |
| CCN1CCN(c2ncc3c(n2)Nc2ccccc2-n2nnnc2-3)CC1 [Compound 43, 11-(4-ethylpiperazin-1-yl)-9H-pyrimido[5,4-c]tetrazolo[1,5-a][1,5]benzodiazepine] | 32 | 90 |
| CC1CCCCC1Nc1ncc2c(n1)Nc1ccccc1-n1nnnc1-2 (stereo not drawn) [Compound 97, N-(2-methylcyclohexyl)-9H-pyrimido[5,4-c]tetrazolo[1,5-a][1,5]benzodiazepin-11-amine] | 39 |  |

| SMILES | DLD-1, MTS, 72 h (% Inhibition) (DLD-1 cancer cells) [%] | MDA-MB-231, MTS, 72 h (% Inhibition) (MDA-MB-231 cancer cells) [%] |
| --- | --- | --- |
| c1ccc(CCNc2ncc3c(n2)Nc2ccccc2-n2nnnc2-3)nc1 [Compound 98, N-(2-pyridin-2-ylethyl)-9H-pyrimido[5,4-c]tetrazolo[1,5-a][1,5]benzodiazepin-11-amine] | 76 | 41 |
| COc1ccc(CNc2ncc3c(n2)Nc2ccccc2-n2nnnc2-3)cc1OC [Compound 57, N-(3,4-dimethoxybenzyl)-9H-pyrimido[5,4-c]tetrazolo[1,5-a][1,5]benzodiazepin-11-amine] | 97 | 39 |
| CN1CCC(Nc2ncc3c(n2)Nc2ccccc2-n2nnnc2-3)CC1 [Compound 66, N-(1-methylpiperidin-4-yl)-9H-pyrimido[5,4-c]tetrazolo[1,5-a][1,5]benzodiazepin-11-amine] | 97 |  |
| Cc1ccc(CCNc2ncc3c(n2)Nc2ccccc2-n2nnnc2-3)cc1 [Compound 90, N-[2-(4-methylphenyl)ethyl]-9H-pyrimido[5,4-c]tetrazolo[1,5-a][1,5]benzodiazepin-11-amine] | 61 |  |
| Cc1cccc(CNc2ncc3c(n2)Nc2ccccc2-n2nnnc2-3)c1 [Compound 83, N-(3-methylbenzyl)-9H-pyrimido[5,4-c]tetrazolo[1,5-a][1,5]benzodiazepin-11-amine] | 89 |  |
| COc1cccc(CCNc2ncc3c(n2)Nc2ccccc2-n2nnnc2-3)c1 [Compound 84, N-[2-(3-methoxyphenyl)ethyl]-9H-pyrimido[5,4-c]tetrazolo[1,5-a][1,5]benzodiazepin-11-amine] | 42 |  |
| CC(CNc1ncc2c(n1)Nc1ccccc1-n1nnnc1-2)c1ccccc1 (stereo not drawn) [Compound 44, N-(2-phenylpropyl)-9H-pyrimido[5,4-c]tetrazolo[1,5-a][1,5]benzodiazepin-11-amine] | 51 |  |
| c1ccc2c(c1)Nc1nc(N3CCN(c4ccncc4)CC3)ncc1-c1nnnn1-2 [Compound 34, 11-(4-pyridin-4-ylpiperazin-1-yl)-9H-pyrimido[5,4-c]tetrazolo[1,5-a][1,5]benzodiazepine] | 97 |  |
| Cc1ccc(CNc2ncc3c(n2)Nc2ccccc2-n2nnnc2-3)cc1F [Compound 46, N-(3-fluoro-4-methylbenzyl)-9H-pyrimido[5,4-c]tetrazolo[1,5-a][1,5]benzodiazepin-11-amine] | 69 |  |
| Fc1ccc(CNc2ncc3c(n2)Nc2ccccc2-n2nnnc2-3)c(Cl)c1 [Compound 102, N-(2-chloro-4-fluorobenzyl)-9H-pyrimido[5,4-c]tetrazolo[1,5-a][1,5]benzodiazepin-11-amine] | 84 |  |
| c1ccc2c(c1)Nc1nc(NCCN3CCCC3)ncc1-c1nnnn1-2 [Compound 37, N-(2-pyrrolidin-1-ylethyl)-9H-pyrimido[5,4-c]tetrazolo[1,5-a][1,5]benzodiazepin-11-amine] | 95 |  |
| c1ccc(CC2CCN(c3ncc4c(n3)Nc3ccccc3-n3nnnc3-4)CC2)cc1 [Compound 105, 11-(4-benzylpiperidin-1-yl)-9H-pyrimido[5,4-c]tetrazolo[1,5-a][1,5]benzodiazepine] |  | 56 |
| Cc1ccc(CNc2ncc3c(n2)Nc2ccccc2-n2nnnc2-3)cc1 [Compound 73, N-(4-methylbenzyl)-9H-pyrimido[5,4-c]tetrazolo[1,5-a][1,5]benzodiazepin-11-amine] |  | 39 |
| COc1ccccc1CNc1ncc2c(n1)Nc1ccccc1-n1nnnc1-2 [Compound 50, N-(2-methoxybenzyl)-9H-pyrimido[5,4-c]tetrazolo[1,5-a][1,5]benzodiazepin-11-amine] | 54 |  |
| Fc1ccc(CCNc2ncc3c(n2)Nc2ccccc2-n2nnnc2-3)cc1 [Compound 74, N-[2-(4-fluorophenyl)ethyl]-9H-pyrimido[5,4-c]tetrazolo[1,5-a][1,5]benzodiazepin-11-amine] | 78 |  |
| c1csc(CNc2ncc3c(n2)Nc2ccccc2-n2nnnc2-3)c1 [Compound 81, N-(thiophen-2-ylmethyl)-9H-pyrimido[5,4-c]tetrazolo[1,5-a][1,5]benzodiazepin-11-amine] | 41 |  |
| Fc1ccc(CNc2ncc3c(n2)Nc2ccccc2-n2nnnc2-3)cc1F [Compound 36, N-(3,4-difluorobenzyl)-9H-pyrimido[5,4-c]tetrazolo[1,5-a][1,5]benzodiazepin-11-amine] | 31 |  |
